# From patent US20210405025A1, “IDENTIFYING COMPOUNDS FOR TREATING CANCER AND USE THEREOF” (THE UAB RESEARCH FOUNDATION, priority 2018, published 2021)
# Where a name gives a salt, the structure may show the parent alone.
# System: relapsed AML cells
# Assay: Drug sensitivity assay, 1,536-well, 3-day culture with individual approved drugs at 10 μM, viability by alamarBlue
# Assay type: cell-based, human
# Settings: not given
# Protocol: Drug sensitivity assays were performed using a 1,536-well platform where all cells and reagents were deposited in wells using an acoustic liquid handling unit that is highly accurate for dispensing of nanoliter volumes of liquid. […] After dispensing the cells into the wells, an independent drug at a known concentration is added to each well and incubated with the cells. After three days, the percentage of live cells in each well is determined to assess the killing efficiency of each compound. […] Cell viability assays are known to those of skill in the art. See, for example, Pemovska et al., Individualized systems medicine strategy to tailor treatments for patients with chemorefractory acute myeloid leukemia. Cancer Discovery 3:1416-1429, 2013; Pabst et al., Identification of small molecules that support human leukemia stem cell activity ex vivo. Nature Methods 11:436-442, 2014; Baccelli et al., A novel approach for the identification of efficient combination therapies in primary human acute myeloid leukemia specimens. Blood Cancer Journal 7:e529, 2017. In studies described herein, the 1,536-well format was utilized, which allowed for use of four times fewer cells as well as less drug and media components due to the small assay volume of 5 microliters. […] Other compounds like CellTiter-Glo (Promega, Madison, Wis.) are equally appropriate reagents for determining cell viability.
# Conditions for the drug screening assays were as described in Pabst et al., Identification of small molecules that support human leukemia stem cell activity ex vivo, Nature Methods 11:436-442, 2014). Using this protocol, cells were cultured in Iscove's Modified Dulbecco's Medium (IMDM), 15% BIT (bovine serum albumin, insulin, transferrin; Stem Cell Technologies 09500 (Vancouver, Calif.)), 100 ng/ml SCF (Shenandoah 100-04 (Warwick, Pa.)), 50 ng/ml FLT3L (Shenandoah 100-21), 20 ng/ml IL-3 (Shenandoah 100-80), 20 ng/ml G-CSF (Shenandoah 100-72), 10^-4 M β-mercaptoethanol, gentamicin (50 μg/ml) and ciprofloxacin (10 μg/ml).
# Cells were removed from liquid nitrogen and placed in a 37° C. bath, just until thawed. For 1,536-well screens utilizing 6,000 wells about 100 million cells were thawed. The volume was doubled with pre-warmed culture media and placed on ice for about one to two minutes. The cells were brought to a final volume of about 8 to 10 mL before spinning down at 1,100 rpm for 5 min at 10° C. The pelleted cells were resuspended in 10 mL of culture media and plated in a tissue-culture treated T75 flask at a density of 1 to 2 million cells/ml. The cells were cultured overnight prior to fluorescence-activated cell sorting of viable cells on the following day.
# After cells were cultured overnight, a cell scraper was used to remove any cells that adhered to the plastic. The cells were gently pipetted up and down to break up aggregates. Then, the entire volume was transferred to a 50 mL conical tube through a 70 micron cell strainer to remove cell clumps. The T75 flask was rinsed and scraped with about 10 mL HBSS and transferred to the same 50 mL conical tube through the strainer. The harvested cells were spun down at 1,100 rpm for 5 min at 10° C. The cells were then resuspendd in about 300-500 microliters FACS buffer (HBSS+2% FBS+1× propidium iodide) and transferred to a FACS tube. The tube was placed on ice and viable cells that are forward- and side-scatter gated on viable myeloid blasts were sorted by FACS (the scatter gate should exclude small lymphocytes, large myeloid cells, and debris). After sorting the required number of viable cells, the cells were spun down at 1,100 rpm for 5 min at 10° C. and subsequently resuspended at 4,000-4,500 cells per 5 microliter volume of complete culture media with growth factors and penicillin/streptomycin.
row,Compound,#Cases >70% cell death
1,[O-][n+]1ccccc1[S-].[O-][n+]1ccccc1[S-].[Zn+2] [PYRITHIONE ZINC],7

# Same assay, conditions: number of relapsed AML cases out of 18 tested with >70% cell death; 10 μM, 3-day culture
row,Compound,#Cases >70% cell death
1,C[C@]12CC[C@H](O)C[C@H]1CC[C@@H]1[C@@H]2C[C@@H](O)[C@]2(C)[C@@H](C3=CC(=O)OC3)CC[C@]12O [DIGOXIGENIN],18
2,COc1ccc2nc3cc(Cl)ccc3c(Nc3cc(CN4CCCC4)c(O)c(CN4CCCC4)c3)c2n1.O=P(O)(O)O.O=P(O)(O)O.O=P(O)(O)O.O=P(O)(O)O [PYRONARIDINE TETRAPHOSPHATE],9
3,C#C[C@]1(O)CC[C@H]2[C@@H]3CCc4cc(O)ccc4[C@H]3CC[C@@]21C [ETHINYL ESTRADIOL],1
4,MONENSIN SODIUM [MONENSIN SODIUM (MONENSIN A IS SHOWN)],7
5,C[C@@H]1C[C@H]2[C@@H]3CCC4=CC(=O)C=C[C@]4(C)[C@@]3(Cl)[C@@H](O)C[C@]2(C)[C@@]1(OC(=O)c1ccco1)C(=O)CCl [MOMETASONE FUROATE],2
6,COc1cc(NS(C)(=O)=O)ccc1Nc1c2ccccc2nc2ccccc12 [AMSACRINE],4
7,CN(C)CCCOc1nn(Cc2ccccc2)c2ccccc12 [BENZYDAMINE],4
8,COc1ccc2c(c1)CN(C(=O)CCN1CCC(Cc3ccccc3)CC1)CCS2 [K201],4
9,CN(Cc1cc(Br)cc(Br)c1N)C1CCCCC1 [BROMHEXINE],1
10,O=C(/C=C/c1cccnc1)NCCCCC1CCN(C(=O)c2ccccc2)CC1 [APO-866],17
11,O=c1cc[nH]c(=O)[nH]1 [URACIL],7
12,O=S(=O)([O-])CCSSCCS(=O)(=O)[O-].[Na+].[Na+] [DIMESNA],1
13,APILIMOD MESYLATE,4
14,Cc1cc([C@@H](C)Nc2ccccc2C(=O)O)c2nc(N3CCOCC3)cc(=O)n2c1 [AZD-6482],1
15,OCCN(CCO)c1nc(N2CCCCC2)c2nc(N(CCO)CCO)nc(N3CCCCC3)c2n1 [DIPYRIDAMOLE],2
16,C#Cc1cccc(Nc2ncnc3cc(OCCOC)c(OCCO)cc23)c1 [OSI-420],3
17,CC(=O)[C@@]1(O)CC[C@H]2[C@@H]3CCC4=CC(=O)CC[C@]4(C)[C@H]3CC[C@@]21C [HYDROXYPROGESTERONE],2
18,"C=CC(=O)Nc1cc(Nc2nccc(-c3cn(C)c4ccccc34)n2)c(OC)cc1N(C)CCN(C)C [OSIMERTINIB (tagrisso), OSIMERTINIB]",1
19,CCCSc1ccc2nc(NC(=O)OC)[nH]c2c1 [ALBENDAZOLE],9
20,CCCCCCCCCCCC[N+](C)(C)CCOc1ccccc1 [DOMIPHEN BROMIDE],16
21,Nc1nc(Cl)nc2c1ncn2[C@@H]1O[C@H](CO)[C@@H](O)[C@@H]1F [CLOFARABINE],18
22,CCOC(=O)C1=C(COCCN)NC(C)=C(C(=O)OC)C1c1ccccc1Cl (centres unmarked) [AMLODIPINE],14
23,CC(=O)Nc1ccc([C@H](C)C(=O)Nc2ncc(C(C)C)s2)cc1 [PHA-690509],11
24,O=C(/C=C/c1ccc(CN(CCO)CCc2c[nH]c3ccccc23)cc1)NO [LAQ-824],18
25,CN(C)c1ccc(C(=C2C=CC(=[N+](C)C)C=C2)c2ccc(N(C)C)cc2)cc1 [GENTIAN VIOLET],18
26,COc1cc([C@@H]2c3cc4c(cc3[C@@H](O[C@@H]3O[C@@H]5CO[C@@H](c6cccs6)O[C@H]5[C@H](O)[C@H]3O)[C@H]3COC(=O)[C@H]23)OCO4)cc(OC)c1O [TENIPOSIDE],10

row,Compound,#Cases >70% cell death
1,CCc1ccc(OCc2ccccc2C(=O)Nc2ccc3nc(C)cc(N)c3c2)cc1 [JTC-801],18
2,CC[C@@H]([C@H](C)O)n1ncn(-c2ccc(N3CCN(c4ccc(OC[C@@H]5CO[C@@](Cn6cncn6)(c6ccc(F)cc6F)C5)cc4)CC3)cc2)c1=O [POSACONAZOLE],6
3,C#C[C@]1(O)CC[C@H]2[C@@H]3[C@H](C)CC4=C(CCC(=O)C4)[C@H]3CC[C@@]21C [TIBOLONE],1
4,C/C=C(\C)C(=O)N[C@@H](c1ccccc1)[C@@H](O)C(=O)O[C@H]1C[C@@]2(O)[C@@H](OC(=O)c3ccccc3)[C@@H]3[C@]4(OC(C)=O)CO[C@@H]4C[C@H](O)[C@@]3(C)C(=O)[C@H](OC(C)=O)C(=C1C)C2(C)C [CEPHALOMANNINE],7
5,CC[C@H]1OC(=O)[C@H](C)[C@@H](O[C@H]2C[C@@](C)(OC)[C@@H](O)[C@H](C)O2)[C@H](C)[C@@H](O[C@@H]2O[C@H](C)C[C@H](N(C)C)[C@H]2O)[C@](C)(O)C[C@@H](C)CN(C)[C@H](C)[C@@H](O)[C@]1(C)O [AZITHROMYCIN],1
6,CN1CCC(CNc2ccc3ncc(-c4cccc(OC(F)(F)F)c4)n3n2)CC1 [SGI-1776],14
7,c1ccc(CC2=NCCN2)cc1 [TOLAZOLINE HYDROCHLORIDE],4
8,"C#CCC(Cc1cnc2nc(N)nc(N)c2n1)c1ccc(C(=O)N[C@@H](CCC(=O)O)C(=O)O)cc1 (some centres unmarked) [PRALATREXATE(FOLOTYN, PRALATREXATE]",5
9,O=C1c2c(O)ccc(O)c2C(=O)c2c(NCCNCCO)ccc(NCCNCCO)c21 [MITOXANTRONE],18
10,COCc1c(C(C)C)nc(C(C)C)c(/C=C/[C@@H](O)C[C@@H](O)CC(=O)O)c1-c1ccc(F)cc1 [CERIVASTATIN],17
11,C[C@@H]1CCN(C(=O)CC#N)C[C@@H]1N(C)c1ncnc2[nH]ccc12 [TOFACETINIB],4
12,IVERMECTIN,18
13,COc1ccc(CN2CCN(C(c3ccc(F)cc3)c3ccc(F)cc3)CC2)c(OC)c1OC [LOMERIZINE],7
14,COc1ccc(C2CNC(=O)C2)cc1OC1CCCC1 (centres unmarked) [ROLIPRAM],1
15,Cc1nc(Nc2ncc(C(=O)Nc3c(C)cccc3Cl)s2)cc(N2CCN(CCO)CC2)n1 [DASATINIB],6
16,C[C@]12CC[C@@H]3c4ccc(OS(=O)(=O)O)cc4CC[C@H]3[C@@H]1CCC2=O [ESTROPIPATE],1
17,O=C(CCCCCCC(=O)Nc1ccccc1)NO [VORINOSTAT],18
18,CC(=O)Nc1ccc(C(=O)Nc2ccccc2N)cc1 [TACEDINALINE],4
19,CN[C@H](C(=O)N[C@H](C(=O)N(C)[C@H](/C=C(\C)C(=O)O)C(C)C)C(C)(C)C)C(C)(C)c1ccccc1 [TALTOBULIN],14
20,CC[C@H](CC#N)OC(=O)N[C@@H](C)c1cccc(NC(=O)Nc2ccc(-c3cnco3)c(OC)c2)c1 [AVN944],10
21,OCCOCCN1CCN(C2=Nc3ccccc3Sc3ccccc32)CC1 [QUETIAPINE],1
22,CC(C)(C)CC(C)(C)c1cc(Cc2cc(C(C)(C)CC(C)(C)C)cc(-n3nc4ccccc4n3)c2O)c(O)c(-n2nc3ccccc3n2)c1 [BISOCTRIZOLE],1
23,CC(C)/N=c1\cc2n(-c3ccc(Cl)cc3)c3ccccc3nc-2cc1Nc1ccc(Cl)cc1 [CLOFAZIMINE],6
24,"Nc1nc2nc[nH]c2c(=S)[nH]1 [TIOGUANINE (6-thioguanine), TIOGUANINE]",16
25,CC(=O)O[C@H]1C[C@H](O[C@H]2[C@@H](O)C[C@H](O[C@H]3[C@@H](O)C[C@H](O[C@H]4CC[C@@]5(C)[C@H](CC[C@@H]6[C@@H]5C[C@@H](O)[C@]5(C)[C@@H](C7=CC(=O)OC7)CC[C@]65O)C4)O[C@@H]3C)O[C@@H]2C)O[C@H](C)[C@H]1O[C@@H]1O[C@H](CO)[C@@H](O)[C@H](O)[C@H]1O [LANATOSIDE C],18
26,COc1ccc2cc3[n+](cc2c1OC)CCc1cc2c(cc1-3)OCO2 [BERBERINE CHLORIDE],1
